Key:
[1] = target: T1, hormone-sensitive lipase (HSL) (Rattus norvegicus, UniProt P15304); experiment: HSL enzyme assay: [3H]trioleoylglycerol hydrolysis by partially purified HSL; type: biochemical; conditions: partially purified HSL from rat fat cells; [3H]trioleoylglycerol substrate; 37° C., 30 min; read-out: IC50
T1 construct: Isolated rat fat cells were obtained from epididymal adipose tissue; from tissue; host or cells: rat epididymal adipose tissue (isolated fat cells, Wistar rats)
T1 sequence (P15304 1-768 isoform P15304-2): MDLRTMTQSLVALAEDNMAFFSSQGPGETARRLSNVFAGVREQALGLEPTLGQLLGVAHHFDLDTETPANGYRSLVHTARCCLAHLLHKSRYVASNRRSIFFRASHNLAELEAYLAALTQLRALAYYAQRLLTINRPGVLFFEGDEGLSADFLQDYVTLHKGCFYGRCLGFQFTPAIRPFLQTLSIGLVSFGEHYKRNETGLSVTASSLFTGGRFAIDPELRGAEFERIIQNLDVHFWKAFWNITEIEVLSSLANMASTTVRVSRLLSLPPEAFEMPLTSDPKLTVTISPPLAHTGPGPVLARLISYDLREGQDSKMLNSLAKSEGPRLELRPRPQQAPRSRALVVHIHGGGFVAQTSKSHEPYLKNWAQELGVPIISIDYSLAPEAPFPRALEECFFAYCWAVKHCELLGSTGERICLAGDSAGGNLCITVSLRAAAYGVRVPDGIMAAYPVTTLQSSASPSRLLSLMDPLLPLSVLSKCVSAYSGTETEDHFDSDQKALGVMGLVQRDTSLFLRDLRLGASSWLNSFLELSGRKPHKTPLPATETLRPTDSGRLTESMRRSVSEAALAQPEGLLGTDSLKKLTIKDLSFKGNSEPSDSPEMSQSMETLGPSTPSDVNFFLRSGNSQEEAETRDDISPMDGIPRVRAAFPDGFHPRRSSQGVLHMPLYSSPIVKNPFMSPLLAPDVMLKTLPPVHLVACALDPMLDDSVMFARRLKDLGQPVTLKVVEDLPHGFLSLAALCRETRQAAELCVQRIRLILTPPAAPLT
Protocol: The effect of the compounds of the invention on HSL was tested using the following enzyme assay system:
Preparation of Partially Purified HSL:
The fat cells from 10 rats were washed three times by flotation with 50 ml each time of homogenization buffer ([…] tris/HCl, pH 7.4, 0.25 M sucrose, 1 mM EDTA, 1 mM DTT, 10 μg/ml leupeptin, 10 μg/ml antipain, 20 μg/ml pepstatin) and finally taken up in 10 ml of homogenization buffer. The fat cells were homogenized in a Teflon-in-glass homogenizer (Braun-Melsungen) by 10 strokes at 1500 rpm and 15° C. The homogenate was centrifuged (Sorvall SM24 tubes, 5000 rpm, 10 min, 4° C.). The subnatant between the fatty layer at the top and the pellet was removed and the centrifugation was repeated. The subnatant resulting therefrom was recentrifuged (Sorvall SM24 tubes, 20000 rpm, 45 min, 4° C.). […] After the mixture had been incubated at 4° C. for 60 min (shaking at 15-min intervals), it was centrifuged (Sorvall SM24 tubes, 3000 rpm, 10 min, 4° C.). The supernatant was adjusted to pH 5.2 by adding glacial acetic acid and incubated at 4° C. for 30 min. The precipitates were collected by centrifugation (Sorvall SS34, 12000 rpm, 10 min, 4° C.) and suspended in 2.5 ml of 20 mM tris/HCl, pH 7.0,1 mM EDTA, 65 mM NaCl, 13% sucrose, 1 mM DTT, 10 μg/ml leupeptin/pepstatin/antipain. The suspension was dialyzed against 25 mM tris/HCl, pH 7.4, 50% glycerol, 1 mM DTT, 10 μg/ml leupeptin, pepstatin, antipain at 4° C. overnight and then loaded onto a hydroxy apatite column (0.1 g per 1 ml of suspension, equilibrated with 10 mM potassium phosphate, pH 7.0, 30% glycerol, 1 mM DTT). The column was washed with four volumes of equilibration buffer at a flow rate of 20 to 30 ml/h. The HSL was eluted with one volume of equilibration buffer containing 0.5 M potassium phosphate, and then dialyzed (see above) and concentrated 5- to 10-fold by ultrafiltration (Amicon Diaflo PM 10 filter) at 4° C. The partially purified HSL can be stored at −70° C. for 4 to 6 weeks.
To prepare the substrate, 25-50 μCi of [^3H]trioleoylglycerol (in toluene), 6.8 μmol of unlabeled trioleoylglycerol and 0.6 mg of phospholipids (phosphatidylcholine/phosphatidylinositol 3:1 w/v) were mixed, dried with N2 and then taken up in 2 ml of 0.1 M KPi (pH 7.0) by ultrasonic treatment (Branson 250, microtip, setting 1-2, 2×1 min at 1-min intervals). After addition of 1 ml of KPi and renewed ultrasonic treatment (4×30 sec on ice in 30-sec intervals), 1 ml of 20% BSA (in KPi) was added (final concentration of trioleoylglycerol 1.7 mM). For the reaction, 100 μl of substrate solution were pipetted into 100 μl of HSL solution (HSL prepared as above, diluted in 20 mM KPi, pH 7.0, 1 mM EDTA, 1 mM DTT, 0.02% BSA, 20 μg/ml pepstatin, 10 μg/ml leupeptin) and incubated at 37° C. for 30 min. […] After phase separation, one equivalent of the upper phase (1 ml) was removed and the radioactivity was determined by liquid scintillation measurement.
Substances were normally tested in four independent mixtures. The inhibition of the HSL enzymatic activity by a test substance was determined by comparison with an uninhibited control reaction. The IC50 was calculated via an inhibition plot with at least 10 concentrations of the test substance. The data was analyzed using the software package GRAPHIT, Elsevier-BIOSOFT.

SMILES: COc1nn(-c2ccc(NC(=O)OCc3ccccc3)cc2C)c(=O)o1 [Example 65, 5-Methoxy-3-(2-methyl-4-benzyloxycarbonylaminophenyl)-3H-(1,3,4)oxadiazol-2-one]
- IC50 [1]: 1000 nM
- melting point: 112 °C

SMILES: COc1nn(-c2ccc(NS(=O)(=O)c3ccc(Cl)cc3)c(C)c2)c(=O)o1 [Example 37, 5-Methoxy-3-(4-(4-chlorophenylsulfonylamino)-3-methylphenyl)-3H-(1,3,4)oxadiazol-2-one]
- IC50 [1]: 1000 nM
- melting point: 147 °C

SMILES: CCCCCCCC(=O)Nc1ccc(-n2nc(OC)oc2=O)cc1C [Example 32, 5-Methoxy-3-(4-octanoylamino-3-methylphenyl)-3H-(1,3,4)oxadiazol-2-one]
- IC50 [1]: 3000 nM
- melting point: 110 °C

SMILES: COc1nn(-c2ccc(NC(=O)Nc3ccc(Cl)c(Cl)c3)c(C)c2)c(=O)o1 [Example 42, 5-Methoxy-3-(4-(3,4-dichlorophenylaminocarbonylamino)-3-methylphenyl)-3H-(1,3,4)oxadiazol-2-one]
- IC50 [1]: 1000 nM
- melting point: 210 °C

SMILES: COc1nn(-c2ccc(N)c(C)c2)c(=O)o1 [Example 28, 5-Methoxy-3-(4-amino-3-methylphenyl)-3H-(1,3,4)oxadiazol-2-one]
- IC50 [1]: 6000 nM
- melting point: 114 °C

SMILES: COc1nn(-c2ccc(NC(C)=CC(C)=O)c(C)c2)c(=O)o1 [Example 53, 5-Methoxy-3-(4-(4-oxopent-2-en-2-ylamino)-3-methylphenyl)-3H-(1,3,4)oxadiazol-2-one]
- IC50 [1]: 1000 nM
- melting point: 143 °C

Reference: patent US6369088B2, “Substituted 3-phenyl-5-alkoxy-1,3,4-oxadiazol-2-ones, their preparation and their use as pharmaceuticals” (Aventis Pharma Deutschland GmbH, priority 2000, dated 2002)
